Assay results published in patent US12582641B2, “Sulfur-containing compound based on glutarimide skeleton and application thereof” (SHANGHAITECH UNIVERSITY, priority 2019, dated 2026).

What follows are compounds tested on MM.1S cells (assay: Proliferation inhibition (IC50) in MM.1S cells, cell viability assay). Conditions: Homo sapiens, MM1.S, 72 h, read-out: IC50 (nM), proliferation inhibitory activity of MM.1S cells (half inhibitory concentration).

| SMILES | IC50 |
| --- | --- |
| CCN(CC)CCCCCCCCSc1cccc2c1CN(C1CCC(=O)NC1=O)C2=O (stereo not shown) [SIAIS1216147, 3-(4-((8-(diethylamino)octyl)thio)-1-oxoisoindolin-2-yl)piperidine-2,6-dione] | 0.19 ± 0.04 nM |
| O=C1CCC(N2C(=O)c3cccc(SCCCCCCCNC45CC6CC(CC(C6)C4)C5)c3C2=O)C(=O)N1 (stereo not shown) [SIAIS1221069, 4-((7-((adamantan-1-yl)amino)heptyl)thio)-2-(2,6-dioxopiperidin-3-yl)isoindoline-1,3-dione] | 0.02 nM |
| O=C1CCC(N2Cc3c(SCCCCCCCCCSc4cccc5c4CN(C4CCC(=O)NC4=O)C5=O)cccc3C2=O)C(=O)N1 (stereo not shown) [SIAIS1220059B, 3,3′-((nonane-1,9-diylbis(sulfanediyl))bis(1-oxoisoindoline-4,2-diyl))bis(piperidine-2,6-dione)] | 1.7 nM |
| CC1CN(CCCCCCCCSc2cccc3c2CN(C2CCC(=O)NC2=O)C3=O)CC(C)N1 (stereo not shown) [SIAIS1220057, 3-(4-((8-(3,5-dimethylpiperazin-1-yl)octyl)thio)-1-oxoisoindolin-2-yl)piperidine-2,6-dione] | 0.77 nM |
| O=C1CCC(N2Cc3c(SCCCCCCCCNc4ncnc5ccccc45)cccc3C2=O)C(=O)N1 (stereo not shown) [SIAIS264011, 3-(1-oxo-4-((8-(quinazolin-4-ylamino)octyl)thio)isoindolin-2-yl)piperidine-2,6-dione] | 0.34 nM |
| O=C1CCC(N2Cc3c(SCCCCCCCN[C@H]4CN5CCC4CC5)cccc3C2=O)C(=O)N1 (stereo partly drawn) [SIAIS1224037, 3-(1-oxo-4-((7-(((R)-quinuclidin-3-yl)amino)heptyl)thio)isoindolin-2-yl)piperidine-2,6-dione] | 14 nM |
| CC1(C)CCC(NCc2ccc(CSc3cccc4c3CN(C3CCC(=O)NC3=O)C4=O)cc2)CC1 (stereo not shown) [SIAIS1227105, 3-(4-((4-(((4,4-dimethylcyclohexyl)amino)methyl)benzyl)thio)-1-oxoisoindolin-2-yl)piperidine-2,6-dione] | 0.05 ± 0.01 nM |
| CCN(CC)CCCCCSc1cccc2c1CN(C1CCC(=O)NC1=O)C2=O (stereo not shown) [SIAIS1216139, 3-(4-((5-(diethylamino)pentyl)thio)-1-oxoisoindolin-2-yl)piperidine-2,6-dione] | 4.06 ± 0.64 nM |
| CCN(CC)CCNCCCCCSc1cccc2c1CN(C1CCC(=O)NC1=O)C2=O (stereo not shown) [SIAIS1220035, 3-(4-((5-((2-(diethylamino)ethyl)amino)pentyl)thio)-1-oxoisoindolin-2-yl)piperidine-2,6-dione] | 4.13 ± 1.43 nM |
| O=C1CCC(N2Cc3c(SCc4nc(CNCC5CCCCC5)cs4)cccc3C2=O)C(=O)N1 (stereo not shown) [SIAIS355004, 3-(4-(((4-(((cyclohexylmethyl)amino)methyl)thiazol-2-yl)methyl)thio)-1-oxoisoindolin-2-yl)piperidine-2,6-dione] | 0.61 ± 0.42 nM |
| O=C1CCC(N2C(=O)c3ccc(SCCCCCCCNC45CC6CC(CC(C6)C4)C5)cc3C2=O)C(=O)N1 (stereo not shown) [SIAIS1221075, 5-((7-((adamantan-1-yl)amino)heptyl)thio)-2-(2,6-dioxopiperidin-3-yl)isoindoline-1,3-dione] | 15.8 nM |
| O=C1CCC(N2Cc3c(SCc4nc(CN5CCCCCC5)cs4)cccc3C2=O)C(=O)N1 (stereo not shown) [SIAIS313171, 3-(4-(((4-(azepan-1-ylmethyl)thiazol-2-yl)methyl)thio)-1-oxoisoindolin-2-yl)piperidine-2,6-dione] | 1.34 ± 0.32 nM |
| CC(C)N(Cc1ccc(CSc2cccc3c2CN(C2CCC(=O)NC2=O)C3=O)cc1)C(C)C (stereo not shown) [SIAIS1227057, 3-(4-((4-((diisopropylamino)methyl)benzyl)thio)-1-oxoisoindolin-2-yl)piperidine-2,6-dione] | 0.252 nM |
| O=C1CCC(N2Cc3c(SCCc4ccc(CCN5CCCCC5)cc4)cccc3C2=O)C(=O)N1 (stereo not shown) [SIAIS1224117, 3-(1-oxo-4-((4-(2-(piperidin-1-yl)ethyl)phenethyl)thio)isoindolin-2-yl)piperidine-2,6-dione] | 0.19 ± 0.01 nM |
| CN1CCN(CCCCCCCCSc2cccc3c2CN(C2CCC(=O)NC2=O)C3=O)CC1 (stereo not shown) [SIAIS1220011, 3-(4-((8-(4-methylpiperazin-1-yl)octyl)thio)-1-oxoisoindolin-2-yl)piperidine-2,6-dione] | 0.57 ± 0.21 nM |
| O=C1CCC(N2Cc3c(SCCCCCCCSC45CC6CC(CC(C6)C4)C5)cccc3C2=O)C(=O)N1 (stereo not shown) [SIAIS1221025, 3-(4-((7-(adamantan-1-ylthio)heptyl)thio)-1-oxoisoindolin-2-yl)piperidine-2,6-dione] | 0.061 nM |
| O=C1CCC(N2Cc3c(SCCCCCCCNC4CCCC4)cccc3C2=O)C(=O)N1 (stereo not shown) [SIAIS1222117, 3-(4-((7-(cyclopentylamino)heptyl)thio)-1-oxoisoindolin-2-yl)piperidine-2,6-dione] | 0.123 nM |
| O=C1CCC(N2Cc3c(SCc4ccc(CN5CCC(F)(F)CC5)cc4)cccc3C2=O)C(=O)N1 (stereo not shown) [SIAIS1227167, 3-(4-((4-((4,4-difluoropiperidin-1-yl)methyl)benzyl)thio)-1-oxoisoindolin-2-yl)piperidine-2,6-dione] | 0.064 nM |
| CN1CCN(C2CCN(CCCCCCCCSc3cccc4c3CN(C3CCC(=O)NC3=O)C4=O)CC2)CC1 (stereo not shown) [SIAIS1220049, 3-(4-((8-(4-(4-methylpiperazin-1-yl)piperidin-1-yl)octyl)thio)-1-oxoisoindolin-2-yl)piperidine-2,6-dione] | 0.26 nM |

| SMILES | IC50 |
| --- | --- |
| O=C1CCC(N2Cc3c(SCc4ccc(CCCNC56CC7CC(CC(C7)C5)C6)cc4)cccc3C2=O)C(=O)N1 (stereo not shown) [SIAIS1227047, 3-(4-((4-(3-((adamantan-1-yl)amino)propyl)benzyl)thio)-1-oxoisoindolin-2-yl)piperidine-2,6-dione] | 0.028 ± 0.003 nM |
| O=C1CCC(N2C(=O)c3cccc(SCc4ccc(CCCN5CCOCC5)cc4)c3C2=O)C(=O)N1 (stereo not shown) [SIAIS1227091, 2-(2,6-dioxopiperidin-3-yl)-4-((4-(3-morpholinopropyl)benzyl)thio) isoindoline-1,3-dione] | 2 nM |
| CC12CC3CC(C)(C1)CC(NC(=O)CCCCCCSc1cccc4c1CN(C1CCC(=O)NC1=O)C4=O)(C3)C2 (stereo not shown) [SIAIS1220197, N-(3,5-dimethyladamantan-1-yl)-7-((2-(2,6-dioxopiperidin-3-yl)-1-oxoisoindolin-4-yl)thio)heptanamide] | 0.578 nM |
| O=C1CCC(N2Cc3c(SCCCCCCCNC(C4CC4)C4CC4)cccc3C2=O)C(=O)N1 (stereo not shown) [SIAIS1224031, 3-(4-((7-((dicyclopropylmethyl)amino)heptyl)thio)-1-oxoisoindolin-2-yl)piperidine-2,6-dione] | 0.105 nM |
| O=C1CCC(N2Cc3c(SCCCCCCCCO)cccc3C2=O)C(=O)N1 (stereo not shown) [SIAIS264006, 3-(4-((8-hydroxyoctyl)thio)-1-oxoisoindolin-2-yl)piperidine-2,6-dione] | 0.83 nM |
| O=C1CCC(N2Cc3c(SCc4ccc(CNC56CC7CC(CC5C7)C6)cc4)cccc3C2=O)C(=O)N1 (stereo not shown) [SIAIS1228019, 3-(4-((4-(((hexahydro-2,5-methanopentalen-3a(1H)-yl)amino)methyl)benzyl)thio)-1-oxoisoindolin-2-yl)piperidine-2,6-dione] | 0.051 nM |
| O=C1CCC(N2Cc3c(SCc4ccc(CCN5CCCCCCC5)cc4)cccc3C2=O)C(=O)N1 (stereo not shown) [SIAIS1227159, 3-(4-((4-(2-(azocan-1-yl)ethyl)benzyl)thio)-1-oxoisoindolin-2-yl)piperidine-2,6-dione] | 0.02 nM |
| CC1(C)[C@@H]2CC[C@@]1(C)[C@@H](NCCCCCCCSc1cccc3c1CN(C1CCC(=O)NC1=O)C3=O)C2 (stereo partly drawn) [SIAIS1221019, 3-(1-oxo-4-((7-(((1R,2S,4R)-1,7,7-trimethylbicyclo[2.2.1]heptan-2-yl)amino)heptyl)thio)isoindolin-2-yl)piperidine-2,6-dione] | 0.007 nM |
| O=C1CCC(N2C(=O)c3cccc(SCCCCCCNC45CC6CC(CC(C6)C4)C5)c3C2=O)C(=O)N1 (stereo not shown) [SIAIS1222109, 4-((6-((adamantan-1-yl)amino)hexyl)thio)-2-(2,6-dioxopiperidin-3-yl)isoindoline-1,3-dione] | 0.404 nM |
| O=C1CCC(N2Cc3c(SCCCCCCCN4CCC5(CCCCC5)CC4)cccc3C2=O)C(=O)N1 (stereo not shown) [SIAIS1221015, 3-(4-((7-(3-azaspiro[5.5]undecan-3-yl)heptyl)thio)-1-oxoisoindolin-2-yl)piperidine-2,6-dione] | 0.04 ± 0.01 nM |
| O=C1CCC(N2Cc3c(SCCCCCCCNc4ccccc4)cccc3C2=O)C(=O)N1 (stereo not shown) [SIAIS1220187, 3-(1-oxo-4-((7-(phenylamino)heptyl)thio)isoindolin-2-yl)piperidine-2,6-dione] | 0.598 nM |
| O=C(CCCCN1CCCCC1)NCCSc1cccc2c1CN(C1CCC(=O)NC1=O)C2=O (stereo not shown) [SIAIS1220169, N-(2-((2-(2,6-dioxopiperidin-3-yl)-1-oxoisoindolin-4-yl)thio)ethyl)-5-(piperidin-1-yl)pentanamide] | 43 nM |
| O=C1CCC(N2Cc3c(SCCCCCCNC4CCCCC4)cccc3C2=O)C(=O)N1 (stereo not shown) [SIAIS1220183, 3-(4-((6-(cyclohexylamino)hexyl)thio)-1-oxoisoindolin-2-yl)piperidine-2,6-dione] | 0.197 nM |
| CCN(CC)CCNCCCCCCCCSc1cccc2c1CN(C1CCC(=O)NC1=O)C2=O (stereo not shown) [SIAIS1220037, 3-(4-((8-((2-(diethylamino)ethyl)amino)octyl)thio)-1-oxoisoindolin-2-yl)piperidine-2,6-dione] | 0.83 ± 0.39 nM |
| O=C1CCC(N2Cc3c(SCCCC(F)(F)C(F)(F)F)cccc3C2=O)C(=O)N1 (stereo not shown) [SIAIS1220133, 3-(1-oxo-4-((4,4,5,5,5-pentafluoropentyl)thio)isoindolin-2-yl)piperidine-2,6-dione] | 4.73 nM |
| CCN(CC)CCCCCCSc1cccc2c1CN(C1CCC(=O)NC1=O)C2=O (stereo not shown) [SIAIS1220029, 3-(4-((6-(diethylamino)hexyl)thio)-1-oxoisoindolin-2-yl)piperidine-2,6-dione] | 1.13 nM |
| CN(CCCCCCCSc1cccc2c1CN(C1CCC(=O)NC1=O)C2=O)C1CC1 (stereo not shown) [SIAIS1222103, 3-(4-((7-(cyclopropyl(methyl)amino)heptyl)thio)-1-oxoisoindolin-2-yl)piperidine-2,6-dione] | 0.25 nM |
| CN1CCN(CCc2ccc(CSc3cccc4c3CN(C3CCC(=O)NC3=O)C4=O)cc2)CC1 (stereo not shown) [SIAIS1227099, 3-(4-((4-(2-(4-methylpiperazin-1-yl)ethyl)benzyl)thio)-1-oxoisoindolin-2-yl)piperidine-2,6-dione] | 0.311 nM |
